Target: T1, D-ketohexose 3-epimerase (Pseudomonas cichorii, UniProt O50580)
T1 construct: The cells which had been recovered from 80 liters of the resultant culture were crushed by grinding; made in house; host or cells: Pseudomonas cichorii ST-24 (FERM BP-2736), the natural producer; not recombinant
Test: Relative enzyme activity of purified D-ketohexose 3-epimerase on L-ketohexose substrates
Format: biochemical, Pseudomonas cichorii ST-24
Conditions: substrate in 0.1 M solution (pH 7.5), 11 units/g substrate of enzyme, 30° C., 24 hours; D-tagatose as control regarded as 100
Method: D-Ketohexose 3-epimerase was studied for relative enzyme activity on various L-ketohexoses. A purified D-ketohexose 3-epimerase obtained by the method in Example 1 was allowed to act on four different types of L-ketohexoses as substrates, i.e. L-psicose, L-fructose, L-sorbose and L-tagatose, to determine the enzyme activity on them. The reaction conditions were as follows: To either substrate in 0.1 M solution (pH 7.5) was added 11 units/g substrate of the enzyme and reacted at 30° C. for 24 hours. As a control, D-tagatose was used as substrate and the relative enzyme activity was regarded as 100.
The enzyme specimen thus obtained was assayed as follows: The reaction solution used in this assay consisted of 100 microliters of 50 mM Tris-HCl buffer (pH 7.5), 50 microliters 40 mM D-tagatose and 50 microliters of an enzyme solution. The enzymatic reaction was carried out at 30° C. for 60 minutes, and the formed D-sorbose was quantified on HPLC. One unit activity of the enzyme was defined as the amount of enzyme that epimerizes one micromol of D-tagatose into D-sorbose per minute.

O=C(CO)[C@@H](O)[C@@H](O)[C@H](O)CO [D-Tagatose, reference compound]
Relative enzyme activity: 100

O=C(CO)[C@H](O)[C@@H](O)[C@@H](O)CO [L-Fructose]
Relative enzyme activity: about 5

O=C(CO)[C@@H](O)[C@@H](O)[C@@H](O)CO [L-Psicose]
Relative enzyme activity: about 20

O=C(CO)[C@@H](O)[C@H](O)[C@@H](O)CO [L-Sorbose]
Relative enzyme activity: about 2

O=C(CO)[C@H](O)[C@H](O)[C@@H](O)CO [L-Tagatose]
Relative enzyme activity: about 0.5

— patent US5811271A, “Process for producing L-ketohexose” (Kabushiki Kaisha Hayashibara Seibutsu Kagaku Kenkyujo, priority 1994, dated 1998)
